From patent US20090053199A1, “Stable Dairy Components Effective for Fat Loss” (priority 2005, published 2009)

System: transgenic mice expressing agouti specifically in adipocytes under the control of the aP2 promoter
Assay: Example 2: weight, fat pad and muscle mass after six weeks on diets including fresh whey products
Type: in vivo
Settings: Example 2, FIG. 11, 1 = Ad Lib, 2 = loCa, 3 = milk, 4 = fresh whey protein, 5 = casein, 6 = soy, 7 = fresh whey mineral, 8 = fresh whey mineral/ACE
Description: The same animals were used as in Example 1. […] All diets had 25% fat (lard+soy oil), with sucrose as sole carbohydrate and the proteins indicated as the sole protein source. Group 1 continued for 6 weeks on the above diet ad libitum. Groups 2-8 continued for six weeks on a restricted diet (70% of the ad libitum energy intake). […] Group 8 used a fresh whey mineral isolate with a whey-derived ACE-inhibitor (e.g., BIPRO). During the six weeks, body weight, food intake and core temperature were measured weekly. […] Specifically, core temperature was monitored weekly as an indirect metabolic index using a thermocouple, and fasting insulin (by radioimmunoassay), leptin (by radioimmunoassay) and glucose (by glucose oxidase) levels were assessed at baseline and at weeks 2, and 6. At the conclusion of the study, all mice were sacrificed under isofluorane anaesthesia and individual subcutaneous and visceral fat depots were excised and weighed for comparison of fat accumulation among the groups and assessment of adipocyte size and number via a Coulter Counter method. Aliquots of adipose tissue were then immediately frozen in liquid nitrogen for subsequent study of gene expression.

O=C([O-])[O-].[Ca+2] [calcium carbonate]
gastrocnemius muscle mass (most to least), Benefit Ranking: did not modify or attenuate this decrease
